The source of these data is US7084154B2, “2-(aminomethyl) arylamide analgesics” (Pharmacopeia Drug Disclovery, Inc., priority 2003, dated 2006).

The structures appear in SMILES notation.

The test system of this test is male mice (strain ICR). In words: Formalin paw licking test in mice. In kind it is in vivo. To be noted: 10 mg/kg i.v. in saline, 15 minutes before sub-plantar 3% formalin; compared to vehicle control. On the procedure:
The activity of the compounds in the in vitro screen was confirmed in vivo. Compound 103 was dissolved in saline and administrated to male mice (strain ICR) at 10 mg/kg i.v. in the tail vein. After 15 minutes, a 3% solution of formalin was administered sub-plantar and the time spent licking the paw was monitored in 5 minute segments over a 45 minute period. The experiment was conducted on 1–6 mice per group and compared to a control set (5 mice), which were given the vehicle alone prior to formalin injection. The first phase response was reduced by approximately 50%. The person of skill in the art would accept this test as predictive of therapeutic utility for analgesia.

Turning to `CC1c2cc(O)ccc2CCN1Cc1ccccc1C(=O)NCC/C=C/c1ccccc1` (stereo not shown) [Compound 103, 2-(7-hydroxy-1-methyl-3,4-dihydro-1H-isoquinolin-2-ylmethyl)-N-(4-phenyl-but-3-enyl)-benzamide], the “reduction of first phase response (time spent licking the paw)” value is “approximately 50%”.
